Source: ChEMBL document CHEMBL1909046, “DrugMatrix in vitro pharmacology data”

What was measured:
[1] = target: T1, Type-2 angiotensin II receptor (Homo sapiens, UniProt P50052); type: cell-based; conditions: cho-k1; further: in other assays of this panel Not Active means under 50% inhibition at 10 µM
T1 sequence (P50052 whole entry): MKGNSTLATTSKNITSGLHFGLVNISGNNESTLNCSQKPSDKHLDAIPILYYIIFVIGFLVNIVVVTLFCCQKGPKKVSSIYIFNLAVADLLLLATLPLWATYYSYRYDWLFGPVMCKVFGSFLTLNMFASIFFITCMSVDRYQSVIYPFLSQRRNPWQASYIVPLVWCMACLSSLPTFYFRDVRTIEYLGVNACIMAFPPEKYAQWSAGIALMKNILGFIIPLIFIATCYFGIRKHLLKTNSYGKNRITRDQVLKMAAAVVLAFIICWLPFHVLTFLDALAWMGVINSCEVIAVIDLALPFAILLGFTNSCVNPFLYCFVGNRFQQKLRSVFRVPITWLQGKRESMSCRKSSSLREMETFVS

Vasopressin V1a receptor = Vasopressin V1a receptor (Homo sapiens, UniProt P37288); type: cell membranes, Membrane; conditions: hek293; further: in other assays of this panel Not Active means under 50% inhibition at 10 µM
Mu-type opioid receptor = Mu-type opioid receptor (Homo sapiens, UniProt P35372); experiment: DRUGMATRIX: Opiate mu (OP3, MOP) radioligand binding (ligand: [3H] Diprenorphine); type: cell membranes, CHO-K1, Membrane; conditions: cho-k1; Not Active = under 50% inhibition at 10 µM
Caspase-1 = target: T2, Caspase-1 (Homo sapiens, UniProt P29466); parameters: species or system Escherichia coli;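 further: Caspase-1 enzyme inhibition assay with a peptide substrate; in other assays of this panel Not Active means under 50% inhibition at 10 µM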
T2 sequence (P29466 whole entry): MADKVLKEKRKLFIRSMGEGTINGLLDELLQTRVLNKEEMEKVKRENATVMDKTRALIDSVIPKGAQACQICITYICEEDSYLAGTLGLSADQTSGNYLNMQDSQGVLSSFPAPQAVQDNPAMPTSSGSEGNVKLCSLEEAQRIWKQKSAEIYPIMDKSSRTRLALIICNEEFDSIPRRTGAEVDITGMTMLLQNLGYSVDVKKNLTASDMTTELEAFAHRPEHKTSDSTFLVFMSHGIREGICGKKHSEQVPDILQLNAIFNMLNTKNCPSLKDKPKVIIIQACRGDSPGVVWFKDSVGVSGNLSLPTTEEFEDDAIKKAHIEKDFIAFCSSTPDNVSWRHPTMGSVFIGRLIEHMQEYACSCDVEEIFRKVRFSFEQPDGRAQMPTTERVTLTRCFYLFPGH

[2] = target: Mitogen-activated protein kinase 14 (Homo sapiens, UniProt Q16539); parameters: species or system Escherichia coli;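 further: inhibition of p38alpha enzyme activity in a biochemical kinase assay, with myelin basic protein serving as substrate; in other assays of this panel Not Active means under 50% inhibition at 10 µM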
Acetylcholinesterase = Acetylcholinesterase (Homo sapiens, UniProt P22303); experiment: DRUGMATRIX: Acetylcholinesterase enzyme inhibition (substrate: acetylthiocholine); type: cell-based, HEK293; conditions: Not Active = under 50% inhibition at 10 µM
Adenosine receptor A3 = target: T3, Adenosine receptor A3 (Homo sapiens, UniProt P0DMS8); type: cell membranes, CHO-K1, Membrane; conditions: cho-k1
T3 sequence (P0DMS8 whole entry): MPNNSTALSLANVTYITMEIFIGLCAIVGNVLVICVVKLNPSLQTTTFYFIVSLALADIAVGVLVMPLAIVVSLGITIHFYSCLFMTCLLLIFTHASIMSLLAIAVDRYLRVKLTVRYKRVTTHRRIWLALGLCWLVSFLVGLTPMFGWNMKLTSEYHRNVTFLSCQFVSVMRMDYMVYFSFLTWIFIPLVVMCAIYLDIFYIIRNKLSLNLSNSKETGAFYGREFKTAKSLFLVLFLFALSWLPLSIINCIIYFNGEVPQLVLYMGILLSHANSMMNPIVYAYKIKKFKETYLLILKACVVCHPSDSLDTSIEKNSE

Cytochrome P450 2E1 = Cytochrome P450 2E1 (Homo sapiens, UniProt P05181); conditions: bti-tn-5b1-4; further: in other assays of this panel Not Active means under 50% inhibition at 10 µM
[3] = target: T4, Muscarinic acetylcholine receptor M2 (Homo sapiens, UniProt P08172); type: cell membranes, CHO-K1, Membrane; conditions: cho-k1; further: in other assays of this panel Not Active means under 50% inhibition at 10 µM
T4 sequence (P08172 whole entry): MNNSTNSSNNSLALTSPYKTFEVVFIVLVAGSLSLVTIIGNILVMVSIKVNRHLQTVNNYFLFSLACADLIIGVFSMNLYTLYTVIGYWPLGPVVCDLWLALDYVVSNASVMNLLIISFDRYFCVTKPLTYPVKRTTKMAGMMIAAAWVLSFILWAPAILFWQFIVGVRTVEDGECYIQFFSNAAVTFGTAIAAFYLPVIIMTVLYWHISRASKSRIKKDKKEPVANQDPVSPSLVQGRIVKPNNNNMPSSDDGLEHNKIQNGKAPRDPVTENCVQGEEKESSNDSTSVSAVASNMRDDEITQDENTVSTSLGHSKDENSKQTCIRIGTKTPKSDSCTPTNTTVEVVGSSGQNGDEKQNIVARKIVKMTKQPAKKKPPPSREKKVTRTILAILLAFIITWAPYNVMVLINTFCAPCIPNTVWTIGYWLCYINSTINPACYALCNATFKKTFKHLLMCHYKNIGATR

[4] = DRUGMATRIX: GABAA, Flunitrazepam, Central radioligand binding (ligand: [3H] Flunitrazepam); type: cell membranes, Rattus norvegicus, Wistar, Brain, Membrane; conditions: Not Active = under 50% inhibition at 10 µM
[5] = DRUGMATRIX: Glutamate, NMDA, Agonism radioligand binding (ligand: [3H] CGP-39653); type: cell membranes, Rattus norvegicus, Wistar, Cerebral cortex, Membrane; conditions: Not Active = under 50% inhibition at 10 µM

Chain of Mitogen-activated protein kinase 14 (Q16539 whole entry): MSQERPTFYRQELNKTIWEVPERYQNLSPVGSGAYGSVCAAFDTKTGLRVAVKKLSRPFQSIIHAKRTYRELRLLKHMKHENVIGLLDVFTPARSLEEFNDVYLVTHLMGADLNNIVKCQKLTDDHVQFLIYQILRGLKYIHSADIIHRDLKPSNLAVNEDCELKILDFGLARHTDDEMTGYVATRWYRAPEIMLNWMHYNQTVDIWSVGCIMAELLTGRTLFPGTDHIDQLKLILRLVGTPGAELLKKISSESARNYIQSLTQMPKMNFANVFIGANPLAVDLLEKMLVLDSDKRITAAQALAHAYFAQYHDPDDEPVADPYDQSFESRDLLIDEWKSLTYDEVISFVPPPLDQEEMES
Chain of Vasopressin V1a receptor (P37288 whole entry): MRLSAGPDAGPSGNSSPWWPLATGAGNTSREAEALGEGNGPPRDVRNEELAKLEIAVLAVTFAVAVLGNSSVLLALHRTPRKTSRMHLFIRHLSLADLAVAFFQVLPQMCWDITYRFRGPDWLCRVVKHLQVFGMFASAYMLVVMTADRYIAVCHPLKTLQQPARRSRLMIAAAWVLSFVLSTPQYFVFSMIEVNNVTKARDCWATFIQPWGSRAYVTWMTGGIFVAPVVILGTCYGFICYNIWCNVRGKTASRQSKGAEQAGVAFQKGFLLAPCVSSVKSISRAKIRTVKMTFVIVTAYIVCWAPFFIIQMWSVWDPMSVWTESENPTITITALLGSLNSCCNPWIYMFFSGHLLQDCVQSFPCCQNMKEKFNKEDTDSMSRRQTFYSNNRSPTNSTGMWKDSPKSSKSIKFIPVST
Chain of Acetylcholinesterase (P22303 whole entry): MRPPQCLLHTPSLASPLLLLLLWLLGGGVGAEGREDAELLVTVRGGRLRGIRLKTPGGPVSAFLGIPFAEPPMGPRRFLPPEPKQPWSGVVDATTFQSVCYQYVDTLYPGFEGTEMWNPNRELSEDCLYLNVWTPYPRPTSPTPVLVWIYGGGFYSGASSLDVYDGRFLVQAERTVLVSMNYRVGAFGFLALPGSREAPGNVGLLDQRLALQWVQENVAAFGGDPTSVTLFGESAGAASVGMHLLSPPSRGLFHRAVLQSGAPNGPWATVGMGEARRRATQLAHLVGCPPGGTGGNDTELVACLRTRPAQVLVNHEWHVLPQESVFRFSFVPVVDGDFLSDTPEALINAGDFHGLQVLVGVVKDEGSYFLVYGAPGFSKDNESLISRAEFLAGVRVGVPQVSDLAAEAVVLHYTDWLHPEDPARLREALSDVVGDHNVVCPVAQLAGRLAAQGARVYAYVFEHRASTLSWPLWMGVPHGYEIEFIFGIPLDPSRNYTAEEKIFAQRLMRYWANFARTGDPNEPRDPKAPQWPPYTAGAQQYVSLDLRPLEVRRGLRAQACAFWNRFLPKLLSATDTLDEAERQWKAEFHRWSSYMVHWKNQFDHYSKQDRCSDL
Chain of Cytochrome P450 2E1 (P05181 whole entry): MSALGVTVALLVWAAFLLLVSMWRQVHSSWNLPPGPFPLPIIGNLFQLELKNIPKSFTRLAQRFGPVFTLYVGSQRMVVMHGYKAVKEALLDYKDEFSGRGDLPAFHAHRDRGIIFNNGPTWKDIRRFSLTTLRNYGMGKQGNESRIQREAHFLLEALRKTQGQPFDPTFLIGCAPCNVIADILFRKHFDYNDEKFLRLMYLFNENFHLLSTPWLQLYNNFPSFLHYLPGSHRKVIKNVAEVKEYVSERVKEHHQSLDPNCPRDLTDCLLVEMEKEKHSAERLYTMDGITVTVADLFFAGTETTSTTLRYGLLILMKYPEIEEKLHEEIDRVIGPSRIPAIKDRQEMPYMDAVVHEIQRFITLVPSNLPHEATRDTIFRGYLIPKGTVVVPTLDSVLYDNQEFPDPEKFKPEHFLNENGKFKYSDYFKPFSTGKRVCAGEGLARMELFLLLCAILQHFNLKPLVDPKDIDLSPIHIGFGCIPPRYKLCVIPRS
Chain of Mu-type opioid receptor (P35372 whole entry): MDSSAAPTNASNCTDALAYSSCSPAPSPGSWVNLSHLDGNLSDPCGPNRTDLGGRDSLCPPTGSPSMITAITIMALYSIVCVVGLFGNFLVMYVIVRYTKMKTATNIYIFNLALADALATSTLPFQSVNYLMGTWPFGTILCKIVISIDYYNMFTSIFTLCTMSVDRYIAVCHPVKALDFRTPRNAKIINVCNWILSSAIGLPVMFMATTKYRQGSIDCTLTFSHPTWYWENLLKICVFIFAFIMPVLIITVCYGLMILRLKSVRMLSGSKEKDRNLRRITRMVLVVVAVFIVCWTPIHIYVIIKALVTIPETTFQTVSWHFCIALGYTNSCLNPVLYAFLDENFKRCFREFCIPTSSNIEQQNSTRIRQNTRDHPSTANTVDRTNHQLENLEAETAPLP

Structure (SMILES) | IC50 [1] | IC50 (Vasopressin V1a receptor) | IC50 (Mu-type opioid receptor) | IC50 (Caspase-1) | IC50 [2] | IC50 (Acetylcholinesterase; hek293) | IC50 (Adenosine receptor A3) | IC50 (Cytochrome P450 2E1) | Ki (Cytochrome P450 2E1) | IC50 [3] | IC50 ([2]; read-out: IC50) | IC50 (Acetylcholinesterase; read-out: IC50) | IC50 [4] | Ki [4] | IC50 [5] | Ki [5]
Clc1ccc2c(c1)C(N1CCNCC1)=Nc1ccccc1O2 [AMOXAPINE] | Not Active | Not Active | Not Active | Not Active | Not Active | Not Active | Not Active | Not Active | Not Active |  |  |  |  |  |  | 
COc1cc2c(c(OC)c1OC)-c1ccc(OC)c(=O)cc1[C@@H](NC(C)=O)CC2 [COLCHICINE] | Not Active | Not Active |  | Not Active | Not Active | Not Active | Not Active | Not Active | Not Active | Not Active |  |  |  |  |  | 
CN1CCC(=C2c3ccccc3C=Cc3ccccc32)CC1 [CYPROHEPTADINE] | Not Active | Not Active | Not Active | Not Active | Not Active | Not Active | Not Active | Not Active | Not Active |  |  |  |  |  |  | 
CC/C(=C(/CC)c1ccc(O)cc1)c1ccc(O)cc1 [DIETHYLSTILBESTROL] | Not Active |  |  | Not Active |  |  |  | Not Active | Not Active | Not Active | 32.9 µM | 25.6 µM |  |  |  | 
CC(=O)N1CCN(c2ccc(OCC3COC(Cn4ccnc4)(c4ccc(Cl)cc4Cl)O3)cc2)CC1 (configuration not stated) [KETOCONAZOLE] | Not Active | Not Active | Not Active | Not Active | Not Active | Not Active | Not Active | Not Active | Not Active |  |  |  | Not Active | Not Active | Not Active | Not Active
C=CCN1CC[C@]23c4c5ccc(O)c4O[C@H]2C(=O)CC[C@@]3(O)[C@H]1C5 [NALOXONE] | Not Active | Not Active |  | Not Active | Not Active | Not Active | Not Active |  |  | Not Active |  |  |  |  |  | 
COCCOC(=O)C1=C(C)NC(C)=C(C(=O)OC(C)C)C1c1cccc([N+](=O)[O-])c1 (configuration not stated) [NIMODIPINE] | Not Active | Not Active | Not Active | Not Active | Not Active | Not Active | Not Active |  |  | Not Active |  |  | Not Active | Not Active | Not Active | Not Active
CC(C)NCC(O)COc1cccc2ccccc12 (configuration not stated) [PROPRANOLOL] | Not Active | Not Active | Not Active | Not Active | Not Active | Not Active | Not Active | Not Active | Not Active | Not Active |  |  |  |  |  | 
O=C(c1ccc(OCCN2CCCCC2)cc1)c1c(-c2ccc(O)cc2)sc2cc(O)ccc12 [RALOXIFENE] | Not Active | Not Active |  | Not Active | Not Active |  | Not Active | Not Active | Not Active | Not Active |  | 0.4 µM | Not Active | Not Active | Not Active | Not Active
CC(C)c1nc(CN(C)C(=O)N[C@H](C(=O)N[C@@H](Cc2ccccc2)C[C@H](O)[C@H](Cc2ccccc2)NC(=O)OCc2cncs2)C(C)C)cs1 [RITONAVIR] | Not Active |  |  | Not Active | Not Active | Not Active | Not Active |  |  | Not Active |  |  | Not Active | Not Active | Not Active | Not Active
CC(=O)CC(c1ccccc1)c1c(O)c2ccccc2oc1=O (configuration not stated) [WARFARIN] | Not Active | Not Active |  | Not Active | Not Active | Not Active | Not Active | Not Active | Not Active | Not Active |  |  | Not Active | Not Active | Not Active | Not Active
